This note sets out measurements from US9932350B2, “Inhibitors of IRAK4 activity” (MERCK SHARP & DOHME CORP., priority 2014, dated 2018).

GST tagged IRAK4, sequence (Q9NWZ3 whole entry): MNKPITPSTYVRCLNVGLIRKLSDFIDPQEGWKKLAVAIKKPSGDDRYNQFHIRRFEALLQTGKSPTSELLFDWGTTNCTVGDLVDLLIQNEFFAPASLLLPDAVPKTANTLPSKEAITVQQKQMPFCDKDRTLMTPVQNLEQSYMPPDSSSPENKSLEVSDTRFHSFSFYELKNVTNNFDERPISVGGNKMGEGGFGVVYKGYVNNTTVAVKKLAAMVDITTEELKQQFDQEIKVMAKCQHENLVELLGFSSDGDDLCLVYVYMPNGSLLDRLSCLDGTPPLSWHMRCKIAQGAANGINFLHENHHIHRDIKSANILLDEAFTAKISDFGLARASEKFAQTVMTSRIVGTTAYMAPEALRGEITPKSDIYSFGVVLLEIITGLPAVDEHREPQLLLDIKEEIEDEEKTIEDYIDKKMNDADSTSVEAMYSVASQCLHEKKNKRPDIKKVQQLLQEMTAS

The experiment concerns the target GST tagged IRAK4 (Homo sapiens (Human), UniProt Q9NWZ3). Kind of experiment: IRAK4 Kinase Assay (IMAP fluorescence polarization). Particulars: 0.5 nM GST tagged IRAK4, 100 μM ATP, 30 minutes at 25° C. The experiment is classed as biochemical. How it is done: The kinase activity of IRAK4 is determined by its ability to catalyze the phosphorylation of a fluorescent polypeptide substrate. The extent of phosphorylation is measured using the IMAP technology (Molecular Devices) where the phosphorylated fluorescent substrate binds to the large M(III)-based nanoparticles which reduces the rotational speed of the substrate and thus increases its fluorescent polarization (FP).
20 μL reaction mixture contains 10 mM TriHCl, pH 7.2, 0.5 nM GST tagged IRAK4 (SignalChem), 100 nM fluorescent peptide substrate (RP7030, Molecular Devices), 100 μM ATP, 1 mM DDT, 1 mM MgCl2, and 0.01% Tween 20. The reaction is initiated by the addition of ATP. After incubation for 30 minutes at 25° C., 60 μL of Progressive IMAP Reagent (Molecular Devices) is added to stop the reaction. Change in RP7030's FP is determined by a FP reader (Analyst HT, LJL BioSystems).
A general note: Fluorescence polarisation rises when a labelled molecule tumbles more slowly, as on binding a larger partner.
As a reminder, the IC50 is the point on the concentration scale where inhibition reaches its midpoint. In turn, `N#Cc1ccc2ncnc(N[C@H]3CC[C@H](N4CCCC(C(F)(F)F)C4)CC3)c2c1` (single isomer, unassigned) [Example 3-2, 4-({cis or trans-4-[(3R or S)-3-(trifluoromethyl)piperidin-1-yl]cyclohexyl}amino) quinazoline-6-carbonitrile] came in with an IC50 of 33 nM.

As to `N#Cc1ccc2ncnc(NC3CCC(N4CCCC(C(F)(F)F)C4)CC3)c2c1` (single isomer, unassigned) [Example 3-3, 4-({cis or trans-4-[(3R or S)-3-(trifluoromethyl)piperidin-1-yl]cyclohexyl}amino) quinazoline-6-carbonitrile], inhibition was half-maximal at 7 nM (IC50).

Take `N#Cc1ccc2ncnc(NC3CCC(N4CCCC(C(F)(F)F)C4)CC3)c2c1` (single isomer, unassigned) [Example 3-4, 4-({cis or trans-4-[(3R or S)-3-(trifluoromethyl)piperidin-1-yl]cyclohexyl}amino) quinazoline-6-carbonitrile]: the IC50 is 503 nM.

The compound `N#Cc1ccc2ncnc(NC3CCC(N4CCCC(C(F)(F)F)C4)CC3)c2c1` (single isomer, unassigned) [Example 3-5, 4-({cis or trans-4-[(3R or S)-3-(trifluoromethyl)piperidin-1-yl]cyclohexyl}amino) quinazoline-6-carbonitrile] displayed an IC50 of 908 nM.

Regarding `N#Cc1ccc2ncnc(N[C@H]3CC[C@H](N4CCOC(CO)C4)CC3)c2c1` (single isomer, unassigned) [Example 3-11, 4-({trans-4-[(2R or 2S)-2-(hydroxymethyl)morpholin-4-yl]cyclohexyl}amino) quinazoline-6-carbonitrile], 7 nM corresponded to half-maximal inhibition (IC50).

`N#Cc1ccc2ncnc(N[C@H]3CC[C@H](N4CCOC(CO)C4)CC3)c2c1` (single isomer, unassigned) [Example 3-12, 4-({trans-4-[(2R or 2S)-2-(hydroxymethyl)morpholin-4-yl]cyclohexyl}amino) quinazoline-6-carbonitrile] came in with an IC50 of 6 nM.

As for `CC1CN([C@H]2CC[C@H](Nc3ncnc4ccc(C#N)cc34)CC2)CC(C)O1` (single isomer, unassigned) [Example 3-14, 4-({trans-4-[(2S,6S or 2R,6R)-2,6-dimethylmorpholin-4-yl]cyclohexyl}amino) quinazoline-6-carbonitrile], half-maximal inhibition (IC50) required 33 nM.

The compound `CC1CN([C@H]2CC[C@H](Nc3ncnc4ccc(C#N)cc34)CC2)CC(C)O1` (single isomer, unassigned) [Example 3-15, 4-({trans-4-[2S,6S or 2R,6R)-2,6-dimethylmorpholin-4-yl]cyclohexyl}amino) quinazoline-6-carbonitrile] gave an IC50 of 58 nM.

`CC1CN([C@H]2CC[C@H](Nc3ncnc4ccc(C#N)cc34)CC2)CCO1` (single isomer, unassigned) [Example 3-16, 4-({trans-4-[(2S or 2R)-2-methylmorpholin-4-yl]cyclohexyl}amino) quinazoline-6-carbonitrile] returned an IC50 of 7 nM.

The compound `CC1CN([C@H]2CC[C@H](Nc3ncnc4ccc(C#N)cc34)CC2)CCO1` (single isomer, unassigned) [Example 3-17, 4-({trans-4-[(2S or 2R)-2-methylmorpholin-4-yl]cyclohexyl}amino) quinazoline-6-carbonitrile] showed an IC50 of 4 nM.

`N#Cc1ccc2ncnc(N[C@H]3CC[C@H](N4CCCC(CN5CCOCC5)C4)CC3)c2c1` (single isomer, unassigned) [Example 3-41, 4-({trans-4-[(3R or 3S)-3-(morpholin-4-ylmethyl)piperidin-1-yl]cyclohexyl}amino) quinazoline-6-carbonitrile] had an IC50 of 70 nM.

The compound `N#Cc1ccc2ncnc(N[C@H]3CC[C@H](N4CCCC(CN5CCOCC5)C4)CC3)c2c1` (single isomer, unassigned) [Example 3-42, 4-({trans-4-[(3R or 3S)-3-(morpholin-4-ylmethyl)piperidin-1-yl]cyclohexyl}amino) quinazoline-6-carbonitrile] came in with an IC50 of 5 nM.
